From patent publication EP1108710A1, “GUAIACOXYPROPANOLAMINES WITH ALPHA/BETA-ADRENERGIC BLOCKING ACTIVITY” (Cheng, Ing-Jun, priority 1998, dated 2000)
Like-named read-outs stand apart in the source and are kept apart here.

Legend:
[1] = test system: Wistar rat's isolated thoracic aorta; experiment: Isolated thoracic aorta contraction caused by 75mM KCl
Method: After sacrificing Wistar rat of weight between 300 - 500 gm, the thoracic aorta was immediately removed and placed in cold Kreb's solution. The fatty connecting tissue surrounding the vessel wall was removed and the thoracic aorta was cut into rings of length 5 mm. The two ends of each ring was pieced and fixed with "Z" shaped platinum wires. […] When the results had been recorded for at least 35 minutes, the aorta was repeatedly rinsed with normal Kreb's solution. […] 30 minutes later, 75mM KCl was added again to induce vasoconstriction.

normotensive rats = experiment: Heart rate and blood pressure in living (anaesthetized) rat, intravenous injection; assay type: in vivo, Wistar rats; conditions: lmg/kg; via femoral vein, rats
Description: Male Wistar rats, weighing 200 ∼ 300g were abdominal anaesthetized with pentobarbital sodium. Tracheal was cannulated to maintain normal respiration. Polyethylene tube was inserted into the left femoral vein to facilitate drug administration. A 3-way stopcock was used, with one end connected to a syringe for drug injection, while the other end was connected to the syringe filled with physiological saline. The latter was used to prevent residual drugs in the polyethylene tube after injection, which would affect experimental accuracy.
The right femoral artery was also inserted with polyethylene, and a 3-way stopcock was used tool, where one end was connected to heparin solution to prevent embolism. The other end was connected to a Disposable Diaphragm Dome, TA1019, and linked to a transducer. Through an amplifier, a recorder recorded the overall and average arterial pressure; heart rate to evaluate the effect of drug on blood pressure and heart rate.

[2] = test system: guinea pig's isolated; reserpine pretreated tracheal; experiment: Direct effect (tracheal relaxation, intrinsic sympathomimetic activity) on reserpine-pretreated isolated trachea, with and without ICI 118,551; conditions: cumulative administration 10^-10∼3x10^-6 M, reserpine pretreated
Method: Pharmacol 311, pp. 205-218 and pp.237-248 (1980). guinea pigs of weight between 350 ∼ 500 gm were used. 18 ∼ 24 hours before the experiment, 5mg/kg of reserpine was injected via abdominal cavity to remove all endogenous catecholamines. Prior experiment, guinea pigs were sacrificed, the tracheal was immediately removed and placed in Kreb's solution aerated with air mixture and maintained at room temperature of 22 ∼ 25°C. […] […] Then the tissue was repeatedly washed with Kreb's solution. After the tissue had been re-equilibrated for 60 minutes, ICI 118, 551 were administed. After treatment for 30 minutes, compound 1 of similar concentration was administered, and the intrinsic sympathomimetic activity of tracheal was observed.

β-adrenoreceptor (β1) = molecular target: T1, β-adrenoreceptor (β1) (Rattus norvegicus, UniProt P18090); experiment: β-adrenoceptor blocking action on isolated spontaneously beating right atrium (L-isoproterenol-induced heart rate increase, Schild plot); set-up: species or system Wistar rat; conditions: from the average pA2 difference between right atrium and tracheal
T1 construct: The right and left atria were then separated; from tissue; host or cells: isolated rat right and left atria
T1 sequence (P18090 whole entry): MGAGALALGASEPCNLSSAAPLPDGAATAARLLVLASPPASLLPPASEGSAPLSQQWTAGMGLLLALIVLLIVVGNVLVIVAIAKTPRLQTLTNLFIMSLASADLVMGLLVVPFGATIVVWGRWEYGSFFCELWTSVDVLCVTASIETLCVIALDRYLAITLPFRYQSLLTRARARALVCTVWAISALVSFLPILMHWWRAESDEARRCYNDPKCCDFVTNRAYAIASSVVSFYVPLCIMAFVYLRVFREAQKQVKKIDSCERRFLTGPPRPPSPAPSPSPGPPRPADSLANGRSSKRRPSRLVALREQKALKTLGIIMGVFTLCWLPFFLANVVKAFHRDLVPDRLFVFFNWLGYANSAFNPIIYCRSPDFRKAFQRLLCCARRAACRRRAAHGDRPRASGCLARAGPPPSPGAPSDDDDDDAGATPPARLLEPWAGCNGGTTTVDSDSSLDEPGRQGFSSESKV
Method: The right and left atria were then separated. The spontaneously-beating right atria was clipped on both end by heart shaped clips, where one end was fixed at the bottom of 10ml of tissue bath made of physiological saline solution, and temperature maintained at 37°C. The other end of the atria was connected to a force transducer, and isometric contractions and beating rate of the right atria were recorded by COULBOURN AT-High-Speed VideoFigure. […] Cumulative administration interval was when the previous concentration reached its greatest effect, the next concentration would be immediately given.

[3] = test system: Wistar rat's isolated; reserpine pretreated right atrium beating rate and left atrium isometric contractions; experiment: Direct effect (intrinsic sympathomimetic activity) on reserpine-pretreated isolated atria
Method: Pharmacol 311, pp. 205-218 and pp 237-248 (1980). Wistar rats of weight between 200 ∼ 300 gm were used. 18 ∼ 24 hours before the experiment, 5mg/kg of reserpine was injected via abdominal cavity to remove all endogenous catecholamines. Prior experiment, Wistar rats were sacrificed, the heart was immediately removed and placed in Kreb's solution aerated with air mixture and maintained at room temperature. The right and left atria were carefully separated.

[4] = 10^-8M, thoracic aorta contraction caused by 75mM KCl

Row | Structure (SMILES) | Aorta Relaxation [1, 4] | Lowering of Blood Pressure (normotensive rats) | Reduction of Heart Rate (normotensive rats) | other results
1 | CCOC(=O)C1=C(C)NC(C)=C(C(=O)OCC)C1c1ccc(OCC(O)CNCCOc2ccccc2OC)c(Cl)c1 (stereo not shown) [compound 7, 4-{{N-{4-[2-hydroxy-3-(2-methoxy-1-oxyethylaminobenzene)propoxy]-3-choloro}phenyl}}-2,6-dimethyl-3,5-dicarbo-ethoxy-1,4-dihydropyridine] | 45± 5% | 82± 6 mm Hg | 40± 2 beats/min | 
2 | COC(=O)C1=C(C)NC(C)=C(C(=O)OC)C1c1ccc(OCC(O)CNCCOc2ccccc2OC)c(OC)c1 (stereo not shown) [compound 2, 4-{{N-{4-[2-hydroxy-3-(2-methoxy-1-oxyethyl-aminobenzene)propoxy]-3-methoxy}phenyl}}-2,6-dimethyl-3,5-dicarbo-methoxy-1,4-dihydropyridine] | 40± 4% | 75± 2 mm Hg | 35± 4 beats/min | 
3 | COc1cc(C=O)ccc1OCC(O)CNC(C)(C)C (stereo not shown) [VANIDILOL, reference compound] |  |  |  | tracheal relaxation effect [2]: dose-dependant tracheal relaxation effect; selectivity ratio of β1 type adrenoceptor (effect on right atrium relative to tracheal) (β-adrenoreceptor (β1)): 0.98 X
4 | CCOC(=O)C1=C(C)NC(C)=C(C(=O)OCC)C1c1cc(Cl)ccc1OCC(O)CNCCOc1ccccc1OC (stereo not shown) [compound 6] |  | 80± 3 mm Hg | 35± 5 beats/min | Aorta Relaxation [1]: 45± 4%
5 | CCOC(=O)C1=C(C)NC(C)=C(C(=O)OCC)C1c1ccc(OCC(O)CNCCOc2ccccc2OC)c(OC)c1 (stereo not shown) [compound 3, 4-{{N-{4-[2-hydroxy-3-(2-methoxy-1-oxyethyl-aminobenzene)propoxy]-3-methoxy}phenyl}}-2,6-dimethyl-3,5-dicarboethoxy-1,4-dihydropyridine] | 41± 2% | 78± 5 mm Hg | 37± 5 beats/min | 
6 | CC(C)NCC(O)COc1ccc(CC(N)=O)cc1 (stereo not shown) [ATENOLOL] |  |  |  | atrial blocking effect ([3]; 3x10-4M): almost does not have atrial blocking effect
7 | CCCCNCC(O)COc1ccc(Cl)cc1C1C(C(=O)OCC)=C(C)NC(C)=C1C(=O)OCC (stereo not shown) [compound 5] | 33± 2% | 74± 4 mm Hg | 32± 4 beats/min | 
8 | CCOC(=O)C1=C(C)NC(C)=C(C(=O)OCC)C1c1cc([N+](=O)[O-])ccc1OCC(O)CNC(C)(C)C (stereo not shown) [compound 8] | 43± 3% | 80± 3 mm Hg | 40± 4 beats/min | 
9 | CC(C)NCC(O)COc1cccc2ccccc12 (stereo not shown) [PROPRANOLOL] |  |  |  | direct effect on atrial tissue ([3]; 10^-4∼10^-3 M): could inactivate or unexcited the tissue; direct effect on right atrium beating rate and left atrium isometric contractions ([3]; cumulative administration, reserpine pretreated): could retard the beating rate and isometric contractions; tracheal relaxation effect [2]: did not produce any relaxation effect
10 | CC(C)NC[C@H](O)c1ccc(O)c(O)c1 [L-isoproterenol] |  |  |  | tracheal relaxation effect [2]: dose-dependant tracheal relaxation effect
11 | CCOC(=O)C1=C(C)NC(C)=C(C(=O)OCC)C1c1cc([N+](=O)[O-])ccc1OCC(O)CNCCOc1ccccc1OC (stereo not shown) [compound 9] | 47± 2% | 85± 6 mm Hg | 40± 5 beats/min | 
12 | CCOC(=O)C1=C(C)NC(C)=C(C(=O)OCC)C1c1cc(Cl)ccc1OCC(O)CNC(C)(C)C (stereo not shown) [compound 4] | 35± 5% | 76± 6 mm Hg | 33± 3 beats/min | 
